In the Kinase Knowledgebase extract (Sharma et al. 2016):

Key:
[1] = molecular target: PIK3CG (human) (UniProt P48736); test: Inhibition of PIK3CG Kinase Activity
[2] = molecular target: PIK3CB (Human) (UniProt P42338); test: Inhibition of PIK3CB Kinase Activity
[3] = molecular target: PIK3CD (Human) (UniProt O00329); test: Inhibition of PIK3CD Kinase Activity
[4] = molecular target: PIK3CA (human) (UniProt P42336); test: Inhibition of PIK3CA Kinase Activity
Sequence of PIK3CA (human) (P42336 whole entry, looked up): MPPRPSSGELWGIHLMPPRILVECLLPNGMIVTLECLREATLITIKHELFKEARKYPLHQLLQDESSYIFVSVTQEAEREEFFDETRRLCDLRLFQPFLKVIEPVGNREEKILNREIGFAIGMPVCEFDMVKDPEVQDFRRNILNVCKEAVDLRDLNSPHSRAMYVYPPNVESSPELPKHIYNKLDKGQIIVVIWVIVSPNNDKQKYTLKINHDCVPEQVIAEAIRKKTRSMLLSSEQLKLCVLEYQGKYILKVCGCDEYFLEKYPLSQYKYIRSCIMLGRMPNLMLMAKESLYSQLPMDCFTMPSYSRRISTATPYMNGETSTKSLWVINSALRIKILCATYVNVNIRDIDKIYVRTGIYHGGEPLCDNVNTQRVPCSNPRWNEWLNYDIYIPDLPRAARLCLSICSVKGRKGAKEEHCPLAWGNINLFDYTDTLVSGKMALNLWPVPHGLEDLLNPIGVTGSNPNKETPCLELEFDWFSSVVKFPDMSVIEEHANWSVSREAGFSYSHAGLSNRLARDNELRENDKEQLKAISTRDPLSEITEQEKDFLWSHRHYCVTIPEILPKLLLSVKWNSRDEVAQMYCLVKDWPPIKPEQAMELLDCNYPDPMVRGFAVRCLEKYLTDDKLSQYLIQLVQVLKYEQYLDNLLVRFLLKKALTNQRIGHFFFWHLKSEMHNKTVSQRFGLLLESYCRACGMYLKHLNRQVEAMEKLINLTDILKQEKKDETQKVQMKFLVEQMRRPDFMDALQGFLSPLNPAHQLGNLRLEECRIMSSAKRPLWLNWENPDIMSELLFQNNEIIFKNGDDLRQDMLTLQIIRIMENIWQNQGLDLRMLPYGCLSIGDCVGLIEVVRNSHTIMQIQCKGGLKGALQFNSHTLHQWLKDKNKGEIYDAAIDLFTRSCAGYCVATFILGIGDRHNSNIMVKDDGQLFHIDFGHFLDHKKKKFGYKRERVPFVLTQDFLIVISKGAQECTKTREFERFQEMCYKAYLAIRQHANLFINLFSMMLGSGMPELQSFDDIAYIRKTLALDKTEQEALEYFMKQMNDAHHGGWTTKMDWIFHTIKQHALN

Sequence of PIK3CB (Human) (P42338 whole entry, looked up): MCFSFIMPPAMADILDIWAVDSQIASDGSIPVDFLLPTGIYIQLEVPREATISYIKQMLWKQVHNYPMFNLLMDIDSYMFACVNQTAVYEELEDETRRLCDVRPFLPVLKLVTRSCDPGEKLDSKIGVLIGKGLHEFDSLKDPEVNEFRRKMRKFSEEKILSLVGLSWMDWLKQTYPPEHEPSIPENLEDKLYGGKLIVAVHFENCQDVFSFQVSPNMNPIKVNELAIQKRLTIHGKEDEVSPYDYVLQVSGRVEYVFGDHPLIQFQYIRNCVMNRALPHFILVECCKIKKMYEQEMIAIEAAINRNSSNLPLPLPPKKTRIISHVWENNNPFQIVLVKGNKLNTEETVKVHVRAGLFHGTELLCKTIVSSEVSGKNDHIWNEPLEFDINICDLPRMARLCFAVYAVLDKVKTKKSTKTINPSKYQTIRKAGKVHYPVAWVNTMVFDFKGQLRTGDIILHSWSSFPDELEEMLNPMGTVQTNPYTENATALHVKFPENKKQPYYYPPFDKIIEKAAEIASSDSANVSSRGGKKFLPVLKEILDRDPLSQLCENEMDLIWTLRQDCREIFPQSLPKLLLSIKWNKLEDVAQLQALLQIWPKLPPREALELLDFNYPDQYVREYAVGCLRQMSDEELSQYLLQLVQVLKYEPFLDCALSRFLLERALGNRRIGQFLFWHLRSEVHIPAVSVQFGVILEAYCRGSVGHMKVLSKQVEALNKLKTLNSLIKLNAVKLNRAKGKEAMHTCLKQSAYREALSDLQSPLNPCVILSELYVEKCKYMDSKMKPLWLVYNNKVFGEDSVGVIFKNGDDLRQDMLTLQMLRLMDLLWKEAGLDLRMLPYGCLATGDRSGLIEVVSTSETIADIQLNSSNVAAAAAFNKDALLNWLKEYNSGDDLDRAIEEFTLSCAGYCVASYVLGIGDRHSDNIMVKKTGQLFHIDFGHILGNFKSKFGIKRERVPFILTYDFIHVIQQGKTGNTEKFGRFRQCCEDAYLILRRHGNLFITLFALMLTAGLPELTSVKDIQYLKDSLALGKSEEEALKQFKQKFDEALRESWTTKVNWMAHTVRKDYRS
Sequence of PIK3CG (human) (P48736 whole entry, looked up): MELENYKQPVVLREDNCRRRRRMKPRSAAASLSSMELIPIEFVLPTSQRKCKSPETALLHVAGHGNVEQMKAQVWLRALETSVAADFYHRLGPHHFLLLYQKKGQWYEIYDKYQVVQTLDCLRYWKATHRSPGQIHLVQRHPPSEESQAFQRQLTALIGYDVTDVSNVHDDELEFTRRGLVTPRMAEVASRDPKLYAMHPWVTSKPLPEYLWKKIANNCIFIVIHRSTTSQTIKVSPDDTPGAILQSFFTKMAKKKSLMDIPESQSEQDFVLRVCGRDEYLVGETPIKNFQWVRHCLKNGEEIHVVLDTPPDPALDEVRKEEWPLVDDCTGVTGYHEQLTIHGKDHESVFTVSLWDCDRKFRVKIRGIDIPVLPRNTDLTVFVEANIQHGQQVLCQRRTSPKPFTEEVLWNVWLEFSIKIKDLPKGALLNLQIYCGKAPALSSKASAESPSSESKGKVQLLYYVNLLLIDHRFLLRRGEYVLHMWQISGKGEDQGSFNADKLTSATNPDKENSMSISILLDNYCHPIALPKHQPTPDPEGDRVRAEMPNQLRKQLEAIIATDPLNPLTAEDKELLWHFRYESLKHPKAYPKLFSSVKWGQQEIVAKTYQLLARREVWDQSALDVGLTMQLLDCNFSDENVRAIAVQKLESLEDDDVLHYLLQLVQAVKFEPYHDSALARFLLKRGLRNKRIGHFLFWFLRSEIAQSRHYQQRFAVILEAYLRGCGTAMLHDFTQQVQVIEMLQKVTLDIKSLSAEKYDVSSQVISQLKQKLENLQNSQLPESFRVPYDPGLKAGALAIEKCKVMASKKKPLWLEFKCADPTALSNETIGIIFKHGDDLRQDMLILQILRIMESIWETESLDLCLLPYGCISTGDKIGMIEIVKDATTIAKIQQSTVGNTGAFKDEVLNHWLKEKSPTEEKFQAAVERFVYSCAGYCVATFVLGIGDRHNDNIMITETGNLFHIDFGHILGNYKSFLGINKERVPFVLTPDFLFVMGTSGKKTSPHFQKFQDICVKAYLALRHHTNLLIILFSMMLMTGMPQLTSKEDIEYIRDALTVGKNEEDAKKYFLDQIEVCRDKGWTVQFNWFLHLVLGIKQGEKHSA
Sequence of PIK3CD (Human) (O00329 whole entry, looked up): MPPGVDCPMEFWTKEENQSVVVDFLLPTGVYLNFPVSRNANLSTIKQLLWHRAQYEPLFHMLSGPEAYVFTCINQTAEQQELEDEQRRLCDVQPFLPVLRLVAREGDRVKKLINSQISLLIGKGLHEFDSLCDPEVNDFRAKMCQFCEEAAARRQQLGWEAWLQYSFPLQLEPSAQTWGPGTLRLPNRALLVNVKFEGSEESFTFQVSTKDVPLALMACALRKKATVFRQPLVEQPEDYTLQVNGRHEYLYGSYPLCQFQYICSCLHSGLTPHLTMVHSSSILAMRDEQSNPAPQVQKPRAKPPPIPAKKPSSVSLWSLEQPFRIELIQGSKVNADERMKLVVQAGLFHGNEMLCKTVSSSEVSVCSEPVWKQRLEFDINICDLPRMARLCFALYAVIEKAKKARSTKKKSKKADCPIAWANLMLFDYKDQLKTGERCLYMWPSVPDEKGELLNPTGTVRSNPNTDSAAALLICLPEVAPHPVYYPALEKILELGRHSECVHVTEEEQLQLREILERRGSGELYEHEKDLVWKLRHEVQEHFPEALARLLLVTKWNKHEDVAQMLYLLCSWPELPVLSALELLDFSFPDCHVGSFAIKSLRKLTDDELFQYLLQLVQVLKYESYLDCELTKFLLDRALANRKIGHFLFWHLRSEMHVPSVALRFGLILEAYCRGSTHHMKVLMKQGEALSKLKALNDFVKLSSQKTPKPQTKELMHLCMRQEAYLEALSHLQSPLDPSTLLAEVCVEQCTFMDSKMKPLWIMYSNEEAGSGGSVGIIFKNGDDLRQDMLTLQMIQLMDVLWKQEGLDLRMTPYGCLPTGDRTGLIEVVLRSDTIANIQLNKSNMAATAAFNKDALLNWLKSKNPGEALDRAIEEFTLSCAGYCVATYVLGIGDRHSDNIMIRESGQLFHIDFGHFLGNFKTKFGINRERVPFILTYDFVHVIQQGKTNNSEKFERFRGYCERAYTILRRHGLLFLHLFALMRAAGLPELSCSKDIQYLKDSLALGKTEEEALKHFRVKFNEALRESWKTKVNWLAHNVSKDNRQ

Row | Structure (SMILES) | IC50 [1] | IC50 [2] | IC50 [3] | IC50 [4]
1 | CC(C)(C)NS(=O)(=O)c1cncc(-c2cc(F)n3nc(N)nc3c2)c1 | < 100 nM | 100 to 1000 nM | – | –
2 | Nc1nc2cc(-c3cncc(S(=O)(=O)NCc4ccccc4)c3)ccn2n1 | < 100 nM | – | – | –
3 | Nc1nc2cc(-c3cncc(S(N)(=O)=O)c3)ccn2n1 | < 100 nM | 100 to 1000 nM | 100 to 1000 nM | –
4 | CCNS(=O)(=O)c1cncc(-c2ccn3nc(N)nc3c2)c1 | < 100 nM | 100 to 1000 nM | 100 to 1000 nM | –
5 | Nc1nc2cc(-c3cncc(S(=O)(=O)N4CCC4)c3)ccn2n1 | < 100 nM | – | – | –
6 | CCCCNS(=O)(=O)c1cccc(-c2ccn3nc(N)nc3c2)c1 | 100 to 1000 nM | – | – | –
7 | CC(C)(C)NS(=O)(=O)c1cncc(-c2ccn3nc(N)nc3c2)c1 | < 100 nM | 100 to 1000 nM | 100 to 1000 nM | 100 to 1000 nM
8 | CS(=O)(=O)c1cccc(-c2ccn3nc(N)nc3c2)c1 | 100 to 1000 nM | – | – | –
9 | Nc1nc2cc(-c3cncc(S(=O)(=O)Nc4ccccc4)c3)ccn2n1 | < 100 nM | – | – | 100 to 1000 nM
10 | Nc1nc2cc(-c3cncc(S(=O)(=O)NCC(F)(F)F)c3)ccn2n1 | < 100 nM | – | – | –
11 | CS(=O)(=O)c1cncc(-c2ccn3nc(N)nc3c2)c1 | < 100 nM | – | – | –
12 | Nc1nc2cc(-c3cncc(C(F)(F)F)c3)ccn2n1 | 100 to 1000 nM | – | – | –
13 | Nc1nc2cc(-c3cccnc3)ccn2n1 | 100 to 1000 nM | – | – | –
14 | CCN(CC)S(=O)(=O)c1cncc(-c2ccn3nc(N)nc3c2)c1 | < 100 nM | 100 to 1000 nM | 100 to 1000 nM | –
15 | CCCNS(=O)(=O)c1cncc(-c2ccn3nc(N)nc3c2)c1 | < 100 nM | – | – | –
16 | CCN(C)S(=O)(=O)c1cncc(-c2ccn3nc(N)nc3c2)c1 | < 100 nM | – | 100 to 1000 nM | 100 to 1000 nM
17 | COc1ccc(-c2ccn3nc(N)nc3c2)cc1OC | < 100 nM | – | 100 to 1000 nM | 100 to 1000 nM
18 | CC(C)NS(=O)(=O)c1cncc(-c2ccn3nc(N)nc3c2)c1 | < 100 nM | 100 to 1000 nM | 100 to 1000 nM | –
19 | CC(C)(NS(=O)(=O)c1cncc(-c2ccn3nc(N)nc3c2)c1)C(F)(F)F | < 100 nM | 100 to 1000 nM | 100 to 1000 nM | –
20 | Nc1nc2cc(-c3cncc(S(=O)(=O)NC4CC4)c3)ccn2n1 | < 100 nM | 100 to 1000 nM | 100 to 1000 nM | –
21 | CNS(=O)(=O)c1cncc(-c2ccn3nc(N)nc3c2)c1 | < 100 nM | 100 to 1000 nM | 100 to 1000 nM | –
